From patent US20180312651A1, “FOAMS AND ARTICLES MADE FROM FOAMS CONTAINING HCFO OR HFO BLOWING AGENTS” (HONEYWELL INTERNATIONAL INC., priority 2011, published 2018)
Counter-ions that a name gives are not always drawn.

Assay: PEL
Conditions: Honeywell internal PEL
From the text: Table 1 and Table 2, below, list the properties of 1233zd(E) and 1234ze(E) compared to other commonly used blowing agents.
Table 3A and Table 3B list the properties of 1233zd(E) compared to some non-flammable blowing agents, such as 245fa and 141b, and various flammable blowing agents, such as methyl formate and hydrocarbons. […] Note that the global warming potential (GWP) of 1233zd(E) of less than 5 is the lowest among all blowing agents compared. Moreover, the GWP of 1233zd(E) is more than two orders of magnitude lower than that of the currently utilized 245fa, and is more than one order of magnitude lower than the present limitations in the EU F-Gas Regulation.

| SMILES | PEL |
| --- | --- |
| FC(F)(F)/C=C/Cl [1233zd(E), trans-1-chloro-3,3,3-trifluoropropene] | 300^5 |

Assay: not given
Conditions: cited from earlier work

| SMILES | LFL/UFL (Vol % in Air) |
| --- | --- |
| CC(F)(F)CC(F)(F)F [365mfc, 1,1,1,3,3-pentafluorobutane] | 3.6-13.3 Vol % |
| FC(Cl)Cl [compound 22, dichlorofluoromethane] | None |
| CC(F)(F)Cl [142b, 1-chloro 1,1-difluoroethane] | 8.0-15.4 Vol % |
| CCC(C)C [isopentane] | 1.4-8.3 Vol % |
| COC=O [Methyl Formate, methyl formate] | 5.0-23.0 Vol % |
| F/C=C/C(F)(F)F [1234ze(E), trans-1,3,3,3-tetrafluoropropene] | None |
| FC(F)CC(F)(F)F [245fa, 1,1,1,3,3-pentafluoropropane] | None |
| C1CCCC1 [C-C5, cyclopentane] | 1.5-8.7 Vol % |
| CCCCC [normal pentane, n-pentane] | 1.4-8.3 Vol % |
| CC(F)(Cl)Cl [141b, 1,1-dichloro-1-fluoroethane] | 7.6-17.7 Vol % |
| FC(F)(F)/C=C/Cl [1233zd(E), trans-1-chloro-3,3,3-trifluoropropene] | None |

Assay: not given
Conditions: manufacturers' literature; cited from earlier work

| SMILES | PEL [ppm] |
| --- | --- |
| CC(F)(F)CC(F)(F)F [365mfc, 1,1,1,3,3-pentafluorobutane] | 1000 |
| FC(Cl)Cl [compound 22, dichlorofluoromethane] | 1000 |
| CC(F)(F)Cl [142b, 1-chloro 1,1-difluoroethane] | 1000 |
| CCC(C)C [isopentane] | 600 |
| COC=O [Methyl Formate, methyl formate] | 600 |
| F/C=C/C(F)(F)F [1234ze(E), trans-1,3,3,3-tetrafluoropropene] | 1000 |
| FC(F)CC(F)(F)F [245fa, 1,1,1,3,3-pentafluoropropane] | 300 |
| CCCCC [normal pentane, n-pentane] | 600 |
| CC(F)(Cl)Cl [141b, 1,1-dichloro-1-fluoroethane] | 500 |
| FC(F)(F)/C=C/Cl [1233zd(E), trans-1-chloro-3,3,3-trifluoropropene] | 300 |
